The test system of one data set is MKN-28. The experiment in a line: Antiproliferative activity against human MKN-28 assessed as reduction in cell viability incubated for 72 hrs by MTT assay. Particulars: MKN-28, 72 h. Type of data set: functional, cell-based.
The next data set concerns the target Endoplasmin (Homo sapiens, UniProt P14625). Put plainly: Displacement of FITC-geldanamycin from N-terminal GRP94 (unknown origin) after 30 mins by fluorescence polarization competitive binding assay. A general note: In fluorescence polarisation assays a small probe gives low polarisation when free and higher when bound to something large.
The subject of a further data set is SK-BR-3. Put plainly: Antiproliferative activity against human SK-BR-3 assessed as reduction in cell viability incubated for 72 hrs by MTT assay. It counts as functional, cell-based. Particulars: SK-BR-3, 72 h. A general note: Tetrazolium dyes change colour on reduction, which living cells bring about.
The subject of another data set is MDA-MB-468. The experiment in a line: Antiproliferative activity against human MDA-MB-468 assessed as reduction in cell viability incubated for 72 hrs by MTT assay. Particulars: MDA-MB-468, 72 h. Type of data set: functional, cell-based.
In another data set the test system is A549. The experiment in a line: Antiproliferative activity against human A549 assessed as reduction in cell viability incubated for 72 hrs by MTT assay. It counts as functional, cell-based. Conditions: A549, 72 h.
In a further data set the test system is MV4-11. Put plainly: Antiproliferative activity against human MV4-11 assessed as reduction in cell viability incubated for 72 hrs by MTT assay. Conditions: MV4-11, 72 h. It counts as functional, cell-based.
The subject of another data set is U2OS. Put plainly: Antiproliferative activity against human U2OS assessed as reduction in cell viability incubated for 72 hrs by MTT assay. Type of data set: functional, cell-based.
In data set [1] the target is Heat shock protein HSP 90-alpha (Homo sapiens, UniProt P07900). The experiment in a line: Displacement of FITC-geldanamycin from N-terminal HSP90alpha (unknown origin) after 30 mins by fluorescence polarization competitive binding assay.
For a further data set, the system named is MCF7. Put plainly: cells. Conditions: Homo sapiens, MCF7, 72 h.
A further data set relates to T47D. Put plainly: Antiproliferative activity against human T47D assessed as reduction in cell viability incubated for 72 hrs by MTT assay. It counts as functional, cell-based.
A further data set deals with MDA-MB-231. Put plainly: Antiproliferative activity against human MDA-MB-231 assessed as reduction in cell viability incubated for 72 hrs by MTT assay. Type of data set: functional, cell-based. Particulars: MDA-MB-231, 72 h.
A further data set has as its system L02. Put plainly: Cytotoxicity against human L02 cells assessed as reduction in cell viability incubated for 72 hrs by MTT assay. It counts as cell-based. Particulars: L02, 72 h.
Data set [2] can be described thus: Permeability of the compound at pH 7.4 by PAMPA. Type of data set: ADME. Conditions: read-out: permeability. For orientation: PAMPA measures passive passage across an artificial lipid membrane.
Data set [3] has as its system HCT-116. Put plainly: cells. Particulars: Homo sapiens, HCT-116, 72 h.
Description: Antiproliferative activity against human HCT-116 cells assessed as reduction in cell viability incubated for 72 hrs by MTT assay
The nature of data set [4]: Selectivity ratio of IC50 for inhibition of FITC-geldanamycin binding to N-terminal GRP94 (unknown origin) to IC50 for inhibition of FITC-geldanamycin binding to N-terminal HSP90alpha (unknown origin).
The test system of data set [5] is HCT-116. The experiment in a line: Antitumor activity against human HCT-116 cells xenografted in nude mouse assessed as reduction in relative tumor volume by measuring T/C ratio at 60 mg/kg, ip administered every other day for 16 days and monitored every 3 days. Type of data set: functional. Particulars: time 16 day.
Another data set deals with BT-474. The experiment in a line: Antiproliferative activity against human BT-474 assessed as reduction in cell viability incubated for 72 hrs by MTT assay. Type of data set: functional, cell-based. Conditions: BT-474, 72 h.
For another data set, the system named is HepG2. The experiment in a line: Antiproliferative activity against human HepG2 assessed as reduction in cell viability incubated for 72 hrs by MTT assay. Type of data set: functional, cell-based. Conditions: HepG2, 72 h.
In another data set the test system is K562. The experiment in a line: Antiproliferative activity against human K562 assessed as reduction in cell viability incubated for 72 hrs by MTT assay. It counts as functional, cell-based. Conditions: K562, 72 h.
Data set [6] deals with T1, Heat shock protein HSP90 (Homo sapiens) (UniProt P07900+P08238). The experiment in a line: Inhibition of HSP90 in human HCT-116 cells assessed as reduction in phosphorylated Erk after 24 hrs by Western blot analysis. Conditions: dose 0.01-3 µM. Type of data set: cell-based.
The target of data set [7] is T1, Heat shock protein HSP90 (Homo sapiens). Put plainly: Inhibition of HSP90 in human HCT-116 cells assessed as reduction in Erk protein expression after 24 hrs by Western blot analysis. Type of data set: cell-based. Conditions: dose 0.01-3 µM.
The subject of data set [8] is Mus musculus. The experiment in a line: In vivo inhibition of HSP90 in nude mouse xenografted with human HCT-116 cells assessed as upregulation of HSP90 protein expression in tumor at 40 to 60 mg/kg, ip administered every other day for 16 days and measured after 12 hrs post last dose by Western blot analysis. Particulars: dose 40-60 mg/kg, time 16.0 day.
Data set [9] addresses T1, Heat shock protein HSP90 (Homo sapiens). The experiment in a line: Inhibition of HSP90 in human HCT-116 cells assessed as induction of HSP70 expression after 24 hrs by Western blot analysis. It counts as cell-based. Conditions: dose 0.01-3 µM.
Data set [10] deals with Mus musculus. Put plainly: In vivo inhibition of HSP90 in nude mouse xenografted with human HCT-116 cells assessed as decrease in Erk protein level in tumor at 40 to 60 mg/kg, ip administered every other day for 16 days and measured after 12 hrs post last dose by Western blot analysis. Conditions: dose 40-60 mg/kg, time 16.0 day.
Data set [11] deals with T1, Heat shock protein HSP90 (Homo sapiens). Put plainly: Inhibition of HSP90 in human HCT-116 cells assessed as reduction in AKT protein expression after 24 hrs by Western blot analysis. Type of data set: cell-based. Particulars: dose 0.01-3 µM.
The subject of data set [12] is HCT-116. The experiment in a line: Antitumor activity against human HCT-116 cells xenografted in nude mouse assessed as decrease in tumor cells at 40 to 60 mg/kg, ip administered every other day for 16 days by hematoxylin and eosin staining based assay. Conditions: dose 40-60 mg/kg, time 16.0 day.
Data set [13] concerns Rattus norvegicus. Put plainly: Ex vivo inhibition of HSP90 in Sprague-Dawley rat assessed as up regulation of HSP70 expression in retina at 20 mg/kg, iv administered for 2 consecutive days and measured 24 hrs post last dose by immunohistochemistry analysis. Type of data set: functional, organism-based. Conditions: time 3.0 day.
Data set [14] concerns Mus musculus. The experiment in a line: In vivo inhibition of HSP90 in nude mouse xenografted with human HCT-116 cells assessed as upregulation of HSP70 protein expression in tumor at 40 to 60 mg/kg, ip administered every other day for 16 days and measured after 12 hrs post last dose by Western blot analysis. Particulars: dose 40-60 mg/kg, time 16.0 day.
The subject of data set [15] is Mus musculus. The experiment in a line: In vivo inhibition of HSP90 in nude mouse xenografted with human HCT-116 cells assessed as decrease in Akt protein level in tumor at 40 to 60 mg/kg, ip administered every other day for 16 days and measured after 12 hrs post last dose by Western blot analysis. Particulars: dose 40-60 mg/kg, time 16.0 day.
The subject of data set [16] is Rattus norvegicus. The experiment in a line: Ex vivo inhibition of HSP90 in Sprague-Dawley rat assessed as up regulation of HSP70 expression in retina at 20 mg/kg, iv administered for 2 consecutive days and measured 24 hrs post last dose by Western blot analysis. Conditions: time 3.0 day. Type of data set: functional, organism-based.
Data set [17] in a line: Apparent volume of distribution in rat at 10 mg/kg, iv measured upto 24 hrs by LC-MS/MS analysis. It counts as ADME, organism-based. Particulars: in vivo, read-out: Vz.
The nature of data set [18]: Apparent volume of distribution in rat at 50 mg/kg, po measured upto 24 hrs by LC-MS/MS analysis. Particulars: in vivo. Type of data set: ADME, organism-based.
In data set [19] the test system is HCT-116. The experiment in a line: Antitumor activity against human HCT-116 cells xenografted in nude mouse assessed as reduction in relative tumor volume by measuring T/C ratio at 40 mg/kg, ip administered every other day for 16 days and monitored every 3 days. Type of data set: functional. Particulars: time 16 day.
Data set [20] is described as follows: Toxicity in nude mouse xenografted with human HCT-116 cells assessed as change in body weight at 40 to 60 mg/kg, ip administered every other day for 16 days and monitored every 3 days. Conditions: in vivo, 384 h.

Activity calls are given as the source filed them. The rule behind the calls is not given here.

Sequence of Endoplasmin (P14625 whole entry): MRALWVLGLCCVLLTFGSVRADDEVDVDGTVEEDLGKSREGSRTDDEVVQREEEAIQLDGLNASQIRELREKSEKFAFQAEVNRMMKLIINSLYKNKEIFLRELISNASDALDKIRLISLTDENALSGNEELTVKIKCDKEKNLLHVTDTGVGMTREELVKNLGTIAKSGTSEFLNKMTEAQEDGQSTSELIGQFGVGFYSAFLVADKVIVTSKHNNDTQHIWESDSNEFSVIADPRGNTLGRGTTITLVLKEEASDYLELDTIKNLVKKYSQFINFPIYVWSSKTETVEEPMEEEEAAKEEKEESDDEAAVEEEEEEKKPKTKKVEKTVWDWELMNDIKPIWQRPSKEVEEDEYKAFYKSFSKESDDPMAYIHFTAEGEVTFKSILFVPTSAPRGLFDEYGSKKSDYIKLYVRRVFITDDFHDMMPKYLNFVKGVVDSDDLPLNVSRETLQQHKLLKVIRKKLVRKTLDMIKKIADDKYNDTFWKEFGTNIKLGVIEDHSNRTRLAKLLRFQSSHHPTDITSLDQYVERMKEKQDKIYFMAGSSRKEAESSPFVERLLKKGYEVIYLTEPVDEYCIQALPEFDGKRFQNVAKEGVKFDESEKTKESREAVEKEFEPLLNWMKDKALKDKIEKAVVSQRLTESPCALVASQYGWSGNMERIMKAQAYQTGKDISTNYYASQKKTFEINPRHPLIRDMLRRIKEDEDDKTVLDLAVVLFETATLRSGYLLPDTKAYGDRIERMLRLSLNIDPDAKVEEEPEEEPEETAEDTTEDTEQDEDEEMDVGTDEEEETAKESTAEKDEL

`CC(C)c1cc(C(=O)N2Cc3ccc(CN4CCN(C)CC4)cc3C2)c(O)cc1O` [ONALESPIB]: the IC50 (usually the concentration at which inhibition is half-maximal) in the data set on MKN-28 was determined as 0.129 µM; at Endoplasmin, 0.022 µM; in the data set on SK-BR-3, 0.071 µM; in the data set on MDA-MB-468, 0.066 µM; in the data set on A549, 0.05 µM; in the data set with MV4-11, 0.011 µM. In addition, the half-maximal inhibitory concentration (IC50) in the data set with U2OS is 0.067 µM; in [1], 0.013 µM; in the data set with MCF7, 0.02 µM; with T47D it was 0.024 µM; in the data set with MDA-MB-231 it was 0.038 µM; with L02 it was 11.6 µM. The IC50 with HCT-116 [3] stood at 0.07 µM; in the data set with BT-474, 0.032 µM; with HepG2 it was 0.018 µM; in the data set with K562, 0.038 µM. For the same molecule, in data set [2], the Papp was determined as 743 nm/s. In addition, in data set [4], the Ratio IC50 worked out at 1.7. For the same molecule, in the data set on HCT-116 [5], the T/C (in general, the ratio of treated to control) is reported as 21%.

Take `CCNc1nc(OCCOC)nc2c1CN(C(=O)c1cc(C(C)C)c(O)cc1O)CC2`: the inhibition entry in data set [6], in data set [7], in data set [9] and in data set [11] was “Dose-dependent effect” in each case. Moreover, the inhibition result in the data set with Mus musculus [8], in the data set with Mus musculus [10], in the data set with Mus musculus [14] and in the data set on Mus musculus [15] was “Active” in each case. For the same molecule, in the data set on HCT-116 [12], the result was Active. For the same molecule, the inhibition entry in the data set on Rattus norvegicus [13] and in the data set on Rattus norvegicus [16] was “inactive” each time. The Ratio IC50 in data set [4] amounted to 26.

Consider `CCNc1nc(OCCOC)nc2c1CN(C(=O)c1cc(C(C)C)c(O)cc1O)CC2.Cl`, for which the Vd in data set [17] worked out at 29.6 L/kg. Moreover, the Vz in data set [18] turned out to be 1620.19 L/kg. In addition, the T/C in the data set on HCT-116 [5] is listed as 23%; with HCT-116 [19], 45%. Besides, the Activity entry in data set [20] is listed as “Non-Toxic”.

The record behind these values is ChEMBL document CHEMBL4706476, “Novel Tetrahydropyrido[4,3-d]pyrimidines as Potent Inhibitors of Chaperone Heat Shock Protein 90” (J Med Chem, 2016).
